Measured values reported in patent publication US8614054B2, “Laser scanning cytometry mediated analysis of therapeutic efficacy in tumors” (Board of Regents, The University of Texas System, priority 2000, dated 2013).

Assays:
endothelial cells = assay: LSC quantification of endothelial cell density (ED) in tumor biopsies; assay type: in vivo, human; settings: following 56 days of treatment
Experimental: FIGS. 17A-B—FIG. 17A Is a diagram showing the concept of quantifying endothelial cells in a tumor biopsy using the LSC. The LSC is used to count endothelial and tumor cells independently in a biopsy. Endothelial cell density (ED) is calculated by dividing the total number of endothelial cells by the total number of tumor cells. FIG. 17B Graph showing that Endostatin decreased ED 1.3 fold following 56 days of treatment.
(§1) After the scan is complete, the gates are set on the scattergram so that the collected data can be analyzed. Relocation of a cell is used to visualize which cells are positive, i.e. CD31 and/or TUNEL positive. Visualization allows the gate on the scattergram to be moved so that the positive cells fall in the appropriate quadrant. The data file can be replayed to obtain the number of cells in each quadrant that are representative of the total percent of all cells counted. […] For BVD, the instruments software is set to contour on CD31 fluorescence. […] The instrument then scans the same area but counts the number of blood vessels, i.e. a single vessel is counted by contiguous fluorescent light. […] BVD can be calculated for that sample by dividing the blood vessel count by the total number of tumor endothelial cells. Endothelial cell density is determined by dividing the total number of endothelial cells by the total number of tumor cells.

tumor vasculature [1] = assay: LSC-mediated blood vessel contouring (blood vessel density) of patient biopsies pre and post-treatment with endostatin; assay type: in vivo, human
Experimental: (§2) Blood vessel density is defined herein as the number of blood vessels as determined from analyzing the fluorescence emission of markers bound to the endothelial cells divided by the total number of cells in the tumor as determined from analyzing the fluorescence emission of markers bound to the cell nuclei. Endothelial cell density is measured because it is a more sensitive marker. Breaks in fluorescence of the endothelial cell stain will delimitate individual blood vessels.
After the scan is complete, the gates are set on the scattergram so that the collected data can be analyzed. Relocation of a cell is used to visualize which cells are positive, i.e. CD31 and/or TUNEL positive. Visualization allows the gate on the scattergram to be moved so that the positive cells fall in the appropriate quadrant. The data file can be replayed to obtain the number of cells in each quadrant that are representative of the total percent of all cells counted. […] For BVD, the instruments software is set to contour on CD31 fluorescence. In Examples 2-7, this is by selecting the long red filter during the setup. The instrument then scans the same area but counts the number of blood vessels, i.e. a single vessel is counted by contiguous fluorescent light. […] BVD can be calculated for that sample by dividing the blood vessel count by the total number of tumor endothelial cells. Endothelial cell density is determined by dividing the total number of endothelial cells by the total number of tumor cells.
Tumor specimens or patient biopsies are obtained prior to and several time points post-treatment such as 1, 3, and 7 days or more. Tissue sections are stained using an immunofluorescent double-labeling technique which permits the simultaneous detection of endothelial cells and fluorescent markers of apoptosis such as TUNEL or caspase activity. The tissue sections are scanned by the LSC and cell data is collected by the instrument's software. […] The contouring is based on the fluorescence of the endothelial cell markers (CD31 and/or CD34). […]

tumor endothelial cells [2] = assay: LSC analysis of tumor endothelial cell death in patient biopsies pre and post-treatment with endostatin; assay type: in vivo, human
Source text: (§3) Tumor specimens or patient biopsies are obtained prior to and several time points post-treatment such as 1, 3, and 7 days or more. Tissue sections are stained using an immunofluorescent double-labeling technique which permits the simultaneous detection of endothelial cells and fluorescent markers of apoptosis such as TUNEL or caspase activity. The tissue sections are scanned by the LSC and cell data is collected by the instrument's software. For the first scan, the Wincyte software is setup by the user to contour on the cell nuclei based on propidium iodide staining. Contouring on the cell nuclei provides the total cell number of the tissue specimen and creates a ‘tissue map’ which permits selective gating of the tumor cells. In addition, contouring on the cell nuclei permits the software to identify endothelial cells (based on CD31 and/or CD34, Pharmingen, Inc., fluorescent staining) and/or TUNEL positive cells (based on fluorescent TUNEL, Promega, Inc.). […] A substantial increase in endothelial cell death post-treatment will indicate drug efficacy to induce apoptosis in tumor endothelial cells. Subsequent to endothelial cell death is the decay of the tumor vasculature. For the second scan, the Wincyte software is setup by the user to contour on the blood vessels of the tumor. The contouring is based on the fluorescence of the endothelial cell markers (CD31 and/or CD34). […]

tumor cells = assay: LSC analysis of tumor cell death in patient biopsies pre and post-treatment with endostatin; assay type: in vivo, human; settings: for change in tumor cell death: pre vs post-treatment
Source text: Tumor specimens or patient biopsies are obtained prior to and several time points post-treatment such as 1, 3, and 7 days or more. Tissue sections are stained using an immunofluorescent double-labeling technique which permits the simultaneous detection of endothelial cells and fluorescent markers of apoptosis such as TUNEL or caspase activity. The tissue sections are scanned by the LSC and cell data is collected by the instrument's software. For the first scan, the Wincyte software is setup by the user to contour on the cell nuclei based on propidium iodide staining. Contouring on the cell nuclei provides the total cell number of the tissue specimen and creates a ‘tissue map’ which permits selective gating of the tumor cells. In addition, contouring on the cell nuclei permits the software to identify endothelial cells (based on CD31 and/or CD34, Pharmingen, Inc., fluorescent staining) and/or TUNEL positive cells (based on fluorescent TUNEL, Promega, Inc.). […] A substantial increase in endothelial cell death post-treatment will indicate drug efficacy to induce apoptosis in tumor endothelial cells. Subsequent to endothelial cell death is the decay of the tumor vasculature. For the second scan, the Wincyte software is setup by the user to contour on the blood vessels of the tumor. The contouring is based on the fluorescence of the endothelial cell markers (CD31 and/or CD34). […] If the treatment targets the tumor vasculature, the number of blood vessels in the tumor will be dramatically lower post-treatment.
Biopsies at different tumor sites were obtained from each of the five patients prior to and after treatment. The biopsies were stained with TUNEL and cy5 labeled antibody to CD31/[…]. […] FIGS. 8-9 represent LSC data from two of the patients. […] The data obtained from contouring on the blood vessels is shown in FIG. 12 where a representative image of blood vessel staining (CD31) is shown.
This gives a difference of 0.23. The 95% CI for this difference is (0.00,0.47), p=0.050 and is significant.

tumor vasculature [3] = assay: LSC-mediated blood vessel contouring (blood vessel density) in mouse tumors; assay type: in vivo; settings: treated mouse tumor, Cy5 label; untreated mouse tumor 52%
Experimental: as §2
as §1, with “TUNEL positive. […] The data” for “TUNEL positive. Visualization allows the gate on the scattergram to be moved so that the positive cells fall in the appropriate quadrant. The data”, “tumor cells. […]” for “tumor cells.”

tumor endothelial cells [4] = assay: LSC analysis of endothelial cell death (CD31/TUNEL double staining) in treated mouse tumors; assay type: in vivo; settings: mouse liver metastasis model, treated vs untreated tumors
Source text: as §3

breast tumor cells = settings: breast cancer patients, following neoadjuvant chemotherapy (FIG. 14)
Experimental: FIGS. 14A-E—Biopsies taken from breast cancer patients pre and post-treatment (24, 48, 66 hours) following neoadjuvant chemotherapy were processed and stained for fluorescent TUNEL. The number of TUNEL positive cells were counted and results are represented as a percent of total cells counted. FIGS. 14F-H—Biopsies taken from breast cancer patients pre, 24, and 48 hours following neoadjuvant chemotherapy were processed and stained for fluorescent TUNEL. FIG. 14F—Representative image of tumor cell apoptosis in a human breast tumor biopsy pre- and post-chemotherapy (48 hrs.) before it is scanned by the LSC. […] FIG. 14G—Representative image of tumor cell apoptosis in a human breast tumor biopsy pre- and post-chemotherapy (48 hrs.) before it is scanned by the LSC. […] FIG. 14H—Bar graph showing the percent change in apoptotic tumor cells post-chemotherapy (24 & 48 hrs.).

## endostatin
Endothelial cells
  decrease of endothelial cell density (ED): 1.3 fold
Tumor vasculature [1]; <60 mg vs >60 mg
  effect of dosing on blood vessel density: not significant
Tumor vasculature [1]; Patient 1, treated for two months (FIG. 13)
  blood vessel density: dramatic decrease
Tumor vasculature [1]; patient biopsy post-treatment with endostatin, pre-treatment BVD 53%
  BVD post-treatment: 28%
Tumor endothelial cells [2]; <60 mg vs >60 mg
  effect of dosing on tumor endothelial cell death: not significant
Tumor endothelial cells [2]; patients treated for two months, pre vs post-treatment (FIG. 11)
  apoptotic endothelial cells: two out of four patients had a dramatic increase
Tumor cells; >60 mg vs <60 mg, 95% CI (0.00,0.47), p=0.050, significant
  difference in change of tumor cell death between doses: 0.23
Tumor cells; dose of <60 mg
  change in tumor cell death: 0.02
Tumor cells; dose of >60 mg
  change in tumor cell death: 0.26
Tumor cells; patients treated for two months, pre vs post-treatment (FIG. 10)
  apoptotic tumor cells: two out of four patients had a dramatic increase

## Cc1[nH]c(/C=C2\C(=O)Nc3ccccc32)c(C)c1CCC(=O)O [SU6668]
Tumor vasculature [3]
  blood vessel density: 55%
Tumor endothelial cells [4]
  endothelial cell death: significant endothelial cell death

## CC(=O)O[C@H]1C(=O)[C@@]2(C)[C@H]([C@H](OC(=O)c3ccccc3)[C@]3(O)C[C@H](OC(=O)[C@H](O)[C@@H](NC(=O)c4ccccc4)c4ccccc4)C(C)=C1C3(C)C)[C@]1(OC(C)=O)CO[C@@H]1C[C@@H]2O [taxol]
Breast tumor cells
  number of apoptotic tumor cells: dramatic increase
